Results from PubChem BioAssay AID248 (DTP/NCI, 2004).
Inconclusive results and toxic doses are left out. Rule as the data show it: active = T/C of 150% or more; inactive = T/C below 125%.

System: L1210 leukemia ip in BDF1 mice, survival T/C
Test: NCI In Vivo Anticancer Drug Screen. Data for tumor model L1210 Leukemia (intraperitoneal) in B6D2F1 (BDF1) mice
Details: endpoint: mean survival time, higher = longer survival
Method in brief: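 Read-out is survival time, reported as the treated-group measurement over the vehicle-control measurement.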

[1] = dose: 100.0 mg/kg/injection, schedule: Q04DX002 (ip), vehicle: saline with Tween-80
[2] = dose: 200.0 mg/kg/injection, schedule: Q04DX002 (ip), vehicle: saline with Tween-80
[3] = dose: 400.0 mg/kg/injection, schedule: Q04DX002 (ip), vehicle: saline with Tween-80
[4] = dose: 25.0 mg/kg/injection, schedule: Q01DX001 (ip), vehicle: saline with Tween-80
[5] = dose: 50.0 mg/kg/injection, schedule: Q01DX001 (ip), vehicle: saline with Tween-80
[6] = dose: 100.0 mg/kg/injection, schedule: Q01DX001 (ip), vehicle: saline with Tween-80
[7] = dose: 100.0 mg/kg/injection, schedule: Q01DX001 (ip), vehicle: carboxymethylcellulose (CMC)
[8] = dose: 200.0 mg/kg/injection, schedule: Q01DX001 (ip), vehicle: carboxymethylcellulose (CMC)

Measured: T/C

NSc1ccc(N)s1
inactive: [1] 108 % of control | [2] 101 % of control | [3] 108 % of control

COC(C#N)C(=N)CC#N (centres undefined)
inactive: dose: 9.5 mg/kg/injection, schedule: Q01DX001 (ip), vehicle: saline 107 % of control | dose: 19.0 mg/kg/injection, schedule: Q01DX001 (ip), vehicle: saline 101 % of control

O=[N+]([O-])c1ccc(N/N=C/c2ccc(N(CCO)CCO)cc2)c([N+](=O)[O-])c1
inactive: [4] 88 % of control | [5] 90 % of control | [6] 98 % of control

CC1=CC(=C(C#N)C#N)CC(C)(C)C1
inactive: dose: 100.0 mg/kg/injection, schedule: Q04DX002 (ip), vehicle: Klucel (hydroxypropylcellulose) (HPC) 101 % of control | dose: 200.0 mg/kg/injection, schedule: Q04DX002 (ip), vehicle: Klucel (hydroxypropylcellulose) (HPC) 101 % of control | dose: 400.0 mg/kg/injection, schedule: Q04DX002 (ip), vehicle: Klucel (hydroxypropylcellulose) (HPC) 93 % of control

Cc1nc(N)[nH]c(=O)c1CCCNCc1ccccn1
inactive: [4] 101 % of control | [5] 98 % of control | [6] 93 % of control

CC(=Nc1ccc(NC(=O)c2ccc(C(=O)Nc3ccc(N=C(C)Nc4ccccc4)cc3)cc2)cc1)Nc1ccccc1
inactive: dose: 15.0 mg/kg/injection, schedule: Q01DX Z (ip), vehicle: saline 93 % of control | dose: 30.0 mg/kg/injection, schedule: Q01DX Z (ip), vehicle: saline 92 % of control | dose: 60.0 mg/kg/injection, schedule: Q01DX Z (ip), vehicle: saline 97 % of control | dose: 120.0 mg/kg/injection, schedule: Q01DX Z (ip), vehicle: saline 93 % of control

O=C(Nc1ccsc1)c1ccccc1
inactive: [7] 110 % of control | dose: 177.6 mg/kg/injection, schedule: Q01DX001 (ip), vehicle: carboxymethylcellulose (CMC) 98 % of control | [8] 91 % of control | dose: 266.8 mg/kg/injection, schedule: Q01DX001 (ip), vehicle: carboxymethylcellulose (CMC) 100 % of control | dose: 400.0 mg/kg/injection, schedule: Q01DX001 (ip), vehicle: carboxymethylcellulose (CMC) 90 % of control | dose: 600.0 mg/kg/injection, schedule: Q01DX001 (ip), vehicle: carboxymethylcellulose (CMC) 102 % of control

N#CC1(Nc2ccc(-c3ccc(Cl)cc3)cc2)CCCC1
inactive: dose: 50.0 mg/kg/injection, schedule: Q01DX001 (ip), vehicle: carboxymethylcellulose (CMC) 91 % of control | [7] 91 % of control | [8] 87 % of control

CCC(O)(CC)C(=O)Nc1ccccc1
inactive: dose: 50.0 mg/kg/injection, schedule: Q01DX001 (ip), vehicle: saline 98 % of control | dose: 100.0 mg/kg/injection, schedule: Q01DX001 (ip), vehicle: saline 104 % of control | dose: 200.0 mg/kg/injection, schedule: Q01DX001 (ip), vehicle: saline 96 % of control | dose: 400.0 mg/kg/injection, schedule: Q01DX001 (ip), vehicle: saline 102 % of control

CC(NC(=O)c1ccc(Cl)c(Cl)c1)c1ccc(-c2ccccc2)cc1 (centres undefined)
inactive: [1] 102 % of control | [2] 91 % of control | [3] 87 % of control
